From ChEMBL document CHEMBL2176958, “Novel aromatase inhibitors by structure-guided design” (J Med Chem, 2012)

Assays:
Aromatase = molecular target: T1, Aromatase (Homo sapiens, UniProt P11511); assay: Inhibition of human placental aromatase using [3H]-1beta-androstenedione as substrate after 16 hrs by [3H]-water method; conditions: for inhibition (INH): human, 16 h
T1 sequence (P11511 whole entry): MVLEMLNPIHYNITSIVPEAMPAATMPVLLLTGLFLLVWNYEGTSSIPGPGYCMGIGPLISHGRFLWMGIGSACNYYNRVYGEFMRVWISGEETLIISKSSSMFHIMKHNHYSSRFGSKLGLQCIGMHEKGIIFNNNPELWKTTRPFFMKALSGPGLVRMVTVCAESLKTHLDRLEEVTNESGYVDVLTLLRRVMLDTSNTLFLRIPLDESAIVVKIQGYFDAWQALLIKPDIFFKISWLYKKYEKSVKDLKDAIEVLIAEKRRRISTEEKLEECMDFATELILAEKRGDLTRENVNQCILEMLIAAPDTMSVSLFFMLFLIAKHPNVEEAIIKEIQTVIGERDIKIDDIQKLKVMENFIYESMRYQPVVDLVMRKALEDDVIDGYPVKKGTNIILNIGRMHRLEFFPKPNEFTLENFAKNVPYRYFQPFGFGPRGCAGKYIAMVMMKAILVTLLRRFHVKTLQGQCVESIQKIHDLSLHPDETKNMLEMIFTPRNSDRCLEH

[1] = (§1) Cytotoxicity against human MCF7a cells expressing Tet-off-3betaHSD1-Arom assessed as inhibition of TST-stimulated cell proliferation measured after 10 days; format: functional, cell-based; conditions: 240 h
MCF7a = assay: as §1; format: functional, cell-based

| SMILES | IC50 (Aromatase) | inhibition (INH) (Aromatase) | EC50 [1] | inhibition (MCF7a) |
| --- | --- | --- | --- | --- |
| CC#CCO[C@@H]1C[C@@H]2[C@H](CC[C@]3(C)C(=O)CC[C@@H]23)[C@@]2(C)C=CC(=O)C=C12 | 112 nM | Dose-dependent effect | 1.7 nM | Dose-dependent effect |
| C[C@]12C=CC(=O)C=C1[C@H](OCC#CCO)C[C@@H]1[C@@H]2CC[C@]2(C)C(=O)CC[C@@H]12 | 20 nM | Dose-dependent effect | 0.3 nM | Dose-dependent effect |
| CCC#CCO[C@@H]1C[C@@H]2[C@H](CC[C@]3(C)C(=O)CC[C@@H]23)[C@@]2(C)C=CC(=O)C=C12 |  | Dose-dependent effect | 0.03 nM | Dose-dependent effect |
| CO[C@@H]1C[C@@H]2[C@H](CC[C@]3(C)C(=O)CC[C@@H]23)[C@@]2(C)C=CC(=O)C=C12 | 5200 nM | Dose-dependent effect |  |  |
| N#Cc1ccc(C(c2ccc(C#N)cc2)n2cncn2)cc1 [LETROZOLE] |  | Dose-dependent effect | 0.004 nM |  |
| CCCCC#CCO[C@@H]1C[C@@H]2[C@H](CC[C@]3(C)C(=O)CC[C@@H]23)[C@@]2(C)C=CC(=O)C=C12 | 181 nM | Dose-dependent effect | 5.4 nM | Dose-dependent effect |
| CCO[C@@H]1C[C@@H]2[C@H](CC[C@]3(C)C(=O)CC[C@@H]23)[C@@]2(C)C=CC(=O)C=C12 | 18100 nM | Dose-dependent effect |  |  |
| CCCC#CCO[C@@H]1C[C@@H]2[C@H](CC[C@]3(C)C(=O)CC[C@@H]23)[C@@]2(C)C=CC(=O)C=C12 | 83 nM | Dose-dependent effect | 3.4 nM | Dose-dependent effect |
| CCCCCCCC#CCO[C@@H]1C[C@@H]2[C@H](CC[C@]3(C)C(=O)CC[C@@H]23)[C@@]2(C)C=CC(=O)C=C12 | 2180 nM | Dose-dependent effect |  | Dose-dependent effect |
| C[C@]12CCC(=O)C(O)=C1CC[C@@H]1[C@@H]2CC[C@]2(C)C(=O)CC[C@@H]12 [FORMESTANE] | 48.6 nM | Dose-dependent effect |  |  |
